Data: patent publication US20050245456A1, “Combination therapy to prevent and treat diarrhea induced by cancer treatment” (Pfizer Inc, priority 2004, published 2005)
Each block holds one compound with its values, some of them ahead of it.

Tests used:
[1] = Phase 1 trial: diarrhea induced by the isothiazole derivative; type: in vivo, human; conditions: almost all subjects at doses greater than 160 mg/day, within the first few days
Method: Susceptible subjects are encouraged to adhere to a daily schedule of prophylactic anti-diarrheal agents, such as Loperamide, Octreotide, Loperamide, Tamoxifen, a bulking agent, or an anti-estrogen. To treat the diarrhea in these patients, a therapeutically effective amount of 3-(4-Bromo-2,6-difluoro-benzyloxy)-5-[3-(4-pyrrolidin-1-yl-butyl)-ureido]-isothiazole-4-carboxylic acid amide HCl is administered to a patient in need of such therapy, prior to, simultaneously or sequentially with a therapeutically effective amount of Loperamide, Octreotide, Loperamide, Tamoxifen, a bulking agent, or an anti-estrogen.

[2] = patients who experienced this side-effect during a previous course of chemotherapy; Cascinu et al. 1994; cited from earlier work
[3] = cited from earlier work
[4] = test system: MCF-7 breast cancer cells; conditions: Otto et al. 1996; cited from earlier work

diarrhea developed by subjects (CTC grade) [1]: Grade 1 or 2 diarrhea
SMILES: NC(=O)c1c(OCc2c(F)cc(Br)cc2F)nsc1NC(=O)NCCCCN1CCCC1 [3-(4-Bromo-2,6-difluoro-benzyloxy)-5-[3-(4-pyrrolidin-1-yl-butyl)-ureido]-isothiazole-4-carboxylic acid amide]

SMILES: C[C@@H](O)[C@@H]1NC(=O)[C@H](CCCCN)NC(=O)[C@@H](Cc2c[nH]c3ccccc23)NC(=O)[C@H](Cc2ccccc2)NC(=O)[C@@H](NC(=O)[C@H](N)Cc2ccccc2)CSSC[C@@H](C(=O)N[C@H](CO)[C@@H](C)O)NC1=O [Octreotide]
prevention of diarrhea associated with cisplatin [2]: active in preventing diarrhea
treatment of diarrhea after chemotherapy with 5-fluorouracil ([3]; 11 patients with colorectal cancer, Kennedy et al. 1990): encouraging results
efficacy versus Loperamide in therapy of 5-fluorouracil-induced diarrhea ([3]; randomized trial, Cascinu et al. 1993): more effective than Loperamide

SMILES: CC/C(=C(\c1ccccc1)c1ccc(OCCN(C)C)cc1)c1ccccc1 [Tamoxifen]
effect on cell cycle progression [4]: blocks cell cycle progression in G0/G1
